How the values were obtained:
Integrin alpha-4/beta-1 [1] = molecular target: T1, Integrin alpha-4/beta-1 (Homo sapiens, UniProt P05556+P13612); experiment: Inhibition of VLA-4 receptor of Jurkat cells in BURJ assay; assay type: cell-based
[2] = Area under plasma concentration curve in rat upon intravenous administration of 5 mg/kg; assay type: ADME, organism-based; parameters: dose 5 mg/kg, route intravenous
[3] = Maximum concentration in rat plasma upon peroral administration of 5 mg/kg; assay type: ADME, organism-based; parameters: dose 5 mg/kg, route oral; conditions: po
[4] = Volume of distribution of compound in rat plasma upon intravenous administration of 5 mg/kg; assay type: ADME, organism-based; parameters: dose 5 mg/kg, route intravenous
[5] = Oral bioavailability in rat upon oral administration of 5 mg/kg; conditions: in vivo
[6] = Half-life in rat upon intravenous administration of 5 mg/kg; assay type: ADME, organism-based; parameters: dose 5 mg/kg, route intravenous; conditions: in vivo
[7] = Plasma clearance in rat upon intravenous administration of 5 mg/kg; assay type: ADME, organism-based; parameters: dose 5 mg/kg, route intravenous
Integrin alpha-4/beta-1 [8] = molecular target: T1, Integrin alpha-4/beta-1; experiment: Percentage binding to VLA-4 receptor of Jurkat cells; assay type: cell-based

T1 sequence (P05556 whole entry): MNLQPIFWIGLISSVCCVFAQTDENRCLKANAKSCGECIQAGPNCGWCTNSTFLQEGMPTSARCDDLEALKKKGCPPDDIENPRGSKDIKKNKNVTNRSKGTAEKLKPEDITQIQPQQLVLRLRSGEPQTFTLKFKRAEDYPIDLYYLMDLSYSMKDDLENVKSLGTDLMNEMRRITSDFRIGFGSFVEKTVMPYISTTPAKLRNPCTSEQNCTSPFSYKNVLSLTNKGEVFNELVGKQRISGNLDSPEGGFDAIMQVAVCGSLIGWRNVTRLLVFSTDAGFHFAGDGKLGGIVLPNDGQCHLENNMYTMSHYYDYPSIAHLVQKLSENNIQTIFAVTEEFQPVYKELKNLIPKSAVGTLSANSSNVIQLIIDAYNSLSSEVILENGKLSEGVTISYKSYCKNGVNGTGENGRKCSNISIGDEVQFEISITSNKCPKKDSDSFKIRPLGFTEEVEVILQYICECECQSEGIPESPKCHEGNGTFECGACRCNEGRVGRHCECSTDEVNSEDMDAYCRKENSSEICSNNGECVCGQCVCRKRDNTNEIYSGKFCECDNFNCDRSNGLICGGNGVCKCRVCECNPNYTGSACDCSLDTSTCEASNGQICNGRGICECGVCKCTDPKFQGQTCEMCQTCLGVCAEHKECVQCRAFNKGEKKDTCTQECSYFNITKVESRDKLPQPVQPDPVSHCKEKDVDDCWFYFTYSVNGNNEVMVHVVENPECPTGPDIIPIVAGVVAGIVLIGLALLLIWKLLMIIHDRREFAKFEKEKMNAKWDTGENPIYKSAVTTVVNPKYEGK
T1 sequence (P13612 whole entry): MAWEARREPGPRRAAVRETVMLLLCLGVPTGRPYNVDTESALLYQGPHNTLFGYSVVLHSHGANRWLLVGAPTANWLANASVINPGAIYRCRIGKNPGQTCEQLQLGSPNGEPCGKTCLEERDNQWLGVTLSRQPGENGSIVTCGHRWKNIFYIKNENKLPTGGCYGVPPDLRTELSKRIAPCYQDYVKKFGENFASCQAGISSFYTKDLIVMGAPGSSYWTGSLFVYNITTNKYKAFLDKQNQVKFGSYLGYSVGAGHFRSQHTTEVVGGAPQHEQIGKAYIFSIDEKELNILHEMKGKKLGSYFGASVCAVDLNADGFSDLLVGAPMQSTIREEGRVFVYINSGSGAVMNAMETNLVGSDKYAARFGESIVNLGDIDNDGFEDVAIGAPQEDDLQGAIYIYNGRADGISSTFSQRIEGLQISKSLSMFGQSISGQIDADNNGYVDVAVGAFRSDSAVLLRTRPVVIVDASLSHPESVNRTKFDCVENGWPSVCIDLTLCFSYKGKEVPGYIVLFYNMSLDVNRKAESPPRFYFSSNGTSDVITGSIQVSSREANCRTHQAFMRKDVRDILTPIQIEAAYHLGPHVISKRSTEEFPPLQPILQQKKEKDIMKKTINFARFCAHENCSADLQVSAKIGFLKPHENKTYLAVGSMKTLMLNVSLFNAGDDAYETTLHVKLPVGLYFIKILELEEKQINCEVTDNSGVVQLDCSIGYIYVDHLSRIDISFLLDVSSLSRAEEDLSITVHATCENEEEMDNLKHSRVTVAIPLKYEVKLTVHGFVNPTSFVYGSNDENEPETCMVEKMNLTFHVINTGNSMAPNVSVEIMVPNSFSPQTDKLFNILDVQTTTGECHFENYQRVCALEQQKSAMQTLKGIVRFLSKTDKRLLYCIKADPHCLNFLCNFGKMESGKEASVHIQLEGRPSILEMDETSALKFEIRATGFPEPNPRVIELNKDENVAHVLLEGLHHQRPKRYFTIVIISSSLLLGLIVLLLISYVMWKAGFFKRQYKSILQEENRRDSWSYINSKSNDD

In the case of COc1cccc(OC)c1-c1ccc(C[C@@H](Cn2oc(=O)[nH]c2=O)NC(=O)[C@@H]2CCCN2S(=O)(=O)c2cc(Cl)cc(Cl)c2)cc1, the IC50 (Integrin alpha-4/beta-1 [1]) is reported as 6000 nM.

Work on O=C(Nc1ccc(C[C@H](NC(=O)[C@@H]2CCCN2S(=O)(=O)c2cc(Cl)cc(Cl)c2)c2noc(O)n2)cc1)c1c(Cl)cncc1Cl yielded an IC50 (Integrin alpha-4/beta-1 [1]) of 12 nM, an AUC [2] of 2.01 µM·h and a Cmax [3] of 6.1 nM. The Vd [4] was 2.61 L/kg, the bioavailability [5] was 0.19% and the half-life [6] was 2.78 h. The clearance [7] was 60 mL/min/kg and the Percent binding to VLA-4 (Integrin alpha-4/beta-1 [8]) was 0%.

In the case of O=C(Nc1ccc(C[C@H](NC(=O)[C@@H]2CCCN2S(=O)(=O)c2cc(Cl)cc(Cl)c2)c2nnn[nH]2)cc1)c1c(Cl)cncc1Cl, the IC50 (Integrin alpha-4/beta-1 [1]) is reported as 60 nM and the Percent binding to VLA-4 (Integrin alpha-4/beta-1 [8]) is reported as 0%.

With O=C(Nc1ccc(C[C@H](NC(=O)[C@@H]2CCCN2S(=O)(=O)c2cc(Cl)cc(Cl)c2)c2cc(O)[nH]n2)cc1)c1c(Cl)cncc1Cl the IC50 (Integrin alpha-4/beta-1 [1]) was 300 nM and the Percent binding to VLA-4 (Integrin alpha-4/beta-1 [8]) was 6%.

O=C(Nc1ccc(C[C@H](NC(=O)[C@@H]2CCCN2S(=O)(=O)c2cc(Cl)cc(Cl)c2)C(=O)NC(=O)C(F)(F)F)cc1)c1c(Cl)cncc1Cl showed an IC50 (Integrin alpha-4/beta-1 [1]) of 10 nM and a Percent binding to VLA-4 (Integrin alpha-4/beta-1 [8]) of 0%.

Compound CCOC(=O)CC(=O)[C@H](Cc1ccc(NC(=O)c2c(Cl)cncc2Cl)cc1)NC(=O)[C@@H]1CCCN1S(=O)(=O)c1cc(Cl)cc(Cl)c1 has an IC50 (Integrin alpha-4/beta-1 [1]) of 13 nM and a Percent binding to VLA-4 (Integrin alpha-4/beta-1 [8]) of 10%.

For O=C(Nc1ccc(C[C@H](NC(=O)[C@@H]2CCCN2S(=O)(=O)c2cc(Cl)cc(Cl)c2)C(=O)NS(=O)(=O)C(F)(F)F)cc1)c1c(Cl)cncc1Cl, the IC50 (Integrin alpha-4/beta-1 [1]) was 11 nM and the Percent binding to VLA-4 (Integrin alpha-4/beta-1 [8]) was 0%.

With O=C(Nc1ccc(C[C@H](NC(=O)[C@@H]2CCCN2S(=O)(=O)c2cc(Cl)cc(Cl)c2)c2cc(O)no2)cc1)c1c(Cl)cncc1Cl the Percent binding to VLA-4 (Integrin alpha-4/beta-1 [8]) was 8%.

For O=C(Nc1ccc(C[C@H](NC(=O)[C@@H]2CCCN2S(=O)(=O)c2cc(Cl)cc(Cl)c2)C(=O)O)cc1)c1c(Cl)cncc1Cl, the IC50 (Integrin alpha-4/beta-1 [1]) was 0.03 nM, the AUC [2] was 0.68 µM·h and the Cmax [3] was 3.14 nM. It also gave a Vd [4] of 0.57 L/kg, a half-life [6] of 0.72 h and a clearance [7] of 38.2 mL/min/kg. It also gave a Percent binding to VLA-4 (Integrin alpha-4/beta-1 [8]) of 66%.

In the case of O=C(Nc1ccc(C[C@H](NC(=O)[C@@H]2CCCN2S(=O)(=O)c2cc(Cl)cc(Cl)c2)c2cc(=O)[nH]o2)cc1)c1c(Cl)cncc1Cl, the IC50 (Integrin alpha-4/beta-1 [1]) is reported as 20 nM, the AUC [2] is reported as 3.51 µM·h and the Vd [4] is reported as 1.25 L/kg. The half-life [6] was 2.85 h and the clearance [7] was 37.6 mL/min/kg.

— ChEMBL document CHEMBL1142815, “Influence of acid surrogates toward potency of VLA-4 antagonist” (Bioorg Med Chem Lett, 2005)
